Results from patent US7754746B2, “Organic compounds” (Novartis AG, priority 2005, dated 2010).

Molecular target: recombinant GST-p110γ (human PI3Kγ residues 38-1102) (Homo sapiens, UniProt P48736)
Assay: in vitro kinase assay (Scintillation Proximity Assay), phosphate transfer from ATP to phosphatidylinositol
Conditions: 12.5 μM ATP in assay mix, 60 minutes at room temperature
Protocol: An in vitro kinase assay was established that measures the transfer of the terminal phosphate of adenosine triphosphate to phosphatidylinositol. The kinase reaction is performed in a white 96 well microtitre plate as a Scintillation Proximity Assay. […] The reaction is started by the addition of 20 μl of enzyme mix (40 mM Tris, 200 mM NaCl, 2 mM EGTA containing recombinant GST-p110γ).

Chain of recombinant GST-p110γ (human PI3Kγ residues 38-1102) (P48736 38-1102): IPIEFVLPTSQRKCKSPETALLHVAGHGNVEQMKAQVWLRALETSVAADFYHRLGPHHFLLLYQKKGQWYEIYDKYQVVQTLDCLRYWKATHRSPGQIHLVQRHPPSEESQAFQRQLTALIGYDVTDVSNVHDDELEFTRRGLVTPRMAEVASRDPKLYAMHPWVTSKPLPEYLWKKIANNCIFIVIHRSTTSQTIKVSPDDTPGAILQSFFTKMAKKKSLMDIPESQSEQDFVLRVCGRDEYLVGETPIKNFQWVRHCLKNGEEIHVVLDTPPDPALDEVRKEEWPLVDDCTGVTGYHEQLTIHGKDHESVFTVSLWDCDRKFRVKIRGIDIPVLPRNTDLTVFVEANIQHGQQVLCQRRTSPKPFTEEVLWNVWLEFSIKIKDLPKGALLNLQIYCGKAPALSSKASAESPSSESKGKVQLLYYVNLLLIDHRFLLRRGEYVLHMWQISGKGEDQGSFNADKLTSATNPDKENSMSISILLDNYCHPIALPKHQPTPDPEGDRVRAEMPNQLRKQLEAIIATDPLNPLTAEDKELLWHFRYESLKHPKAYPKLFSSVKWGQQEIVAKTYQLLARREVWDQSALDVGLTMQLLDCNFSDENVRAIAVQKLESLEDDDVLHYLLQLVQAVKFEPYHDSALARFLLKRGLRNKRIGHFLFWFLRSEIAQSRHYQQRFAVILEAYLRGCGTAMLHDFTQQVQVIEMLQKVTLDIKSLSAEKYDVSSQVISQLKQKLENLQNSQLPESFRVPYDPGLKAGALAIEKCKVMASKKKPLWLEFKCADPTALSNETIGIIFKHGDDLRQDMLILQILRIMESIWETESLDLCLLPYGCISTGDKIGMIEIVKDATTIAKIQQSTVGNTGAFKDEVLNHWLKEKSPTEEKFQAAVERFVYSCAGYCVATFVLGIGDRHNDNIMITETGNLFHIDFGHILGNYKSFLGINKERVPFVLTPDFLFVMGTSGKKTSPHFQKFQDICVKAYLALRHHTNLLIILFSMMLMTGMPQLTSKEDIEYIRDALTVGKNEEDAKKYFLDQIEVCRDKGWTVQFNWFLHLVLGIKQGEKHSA

IC50: 0.11 µM
Structure (SMILES): CC(=O)c1ccc(-c2sc(NC(=O)NCCc3cn(CCF)cn3)nc2C)cc1 [Example 5]
